Among the data in patent US9181258B2, “Substituted 3,4-dihydropyrrolo[1,2-a]pyrazin-1(2H)-ones as protein kinase inhibitors” (NERVIANO MEDICAL SCIENCES S.R.L., priority 2011, dated 2015) are IC50 values, retold here.

pIC50: −log10 of the molar value. Structures can show the parent of a compound that is named as a salt.

As usually defined, the pIC50 is −log10 of the IC50, conventionally taken in molar units.

The target in experiment [1] is human PIM1 (Homo sapiens (Human), UniProt P11309). Briefly: Biochemical assay for inhibitors of PIM1 kinase activity (trans-phosphorylation, Dowex technique). As to conditions: ATP 200 μM, Aktide 25 μM, enzyme 1 nM; read-out: PIM-1 IC50. The protocol:
Biochemical Assay for Inhibitors of PIM1 Kinase Activity
The inhibitory activity of putative kinase inhibitors and the potency of selected compounds were determined using a trans-phosphorylation assay.
Specific peptide or protein substrates were trans-phosphorylated by their specific ser-thr or tyr kinase in the presence of ATP traced with ^33P-γ-ATP, and in the presence of their own optimal buffer and cofactors.
At the end of the phosphorylation reaction, more than 98% unlabeled ATP and radioactive ATP were captured by an excess of the ion exchange dowex resin; the resin then settled down to the bottom of the reaction plate by gravity. Supernatant was subsequently withdrawn and transferred into a counting plate, then evaluated by β-counting.
Reagents/Assay Conditions i. Dowex Resin Preparation
500 g of wet resin (SIGMA, custom prepared resin DOWEX 1×8 200-400 mesh, 2.5 Kg) were weighed out and diluted to 2 L in 150 mM sodium formate, pH 3.00.
The resin was allowed to settle down (some hours) and then the supernatant was discarded.
After three washes as above over a couple of days, the resin was allowed to settle and two volumes (wrt the resin volume) of 150 mM sodium formate buffer were added.
The pH was then measured and should have been around 3.00.
The washed resin was stable for more than one week; the stock resin was kept at 4° C. before use.
The buffer for PIM1 assay was composed of HEPES 50 mM, at pH 7.5, with 10 mM MgCl2, 1 mM DTT, 3 μM NaVO3, and 0.2 mg/mL BSA.
Full-length human PIM1 was expressed and purified as described in Bullock A N, et al., J. Biol. Chem. 2005, 280, 41675-82.
1.7 μM PIM1 was incubated 1 h at 28° C. in the presence of 125 μM ATP.
ATP concentration: 200 μM; ^33P-γ-ATP: 6 nM; Enzyme concentration: 1 nM Substrate concentration Aktide (Chemical Abstract Service Registry Number 324029-01-8): 25 μM iv. Robotized Dowex Assay
The test mix consisted of:
1) 3× Enzyme mix (done in Kinase Buffer 3×), 5 μL/well
2) 3× substrate and ATP mix (done in ddH2O), together with ^33P-γ-ATP, 5 μL/well 3) 3× test compounds (diluted into ddH2O—3% DMSO)—5 μL/well See below for compound dilution and assay scheme […]
An automated station (Biomek FX, Beckman) was used for serial dilutions, producing 1:3 dilutions in 100% DMSO, from line A1 to A10, for all the compounds in the column.
Data were analyzed by an internally customized version of the “Assay Explorer” SW package, which provided sigmoidal fitting of the ten-dilution curves for IC50 determination in secondary assay/hit confirmation routines.

Experiment [2] has as its system MV-4-11 cells. Nature of the experiment: In vitro cell proliferation assay (CellTiter-Glo), MV-4-11. It counts as cell-based. Conditions: Homo sapiens, MV4-11, 72 hours. The protocol:
(§1) In Vitro Cell Proliferation Assay
MV-4-11 (biphenotypic B myelomonocytic leukemia) cell line was obtained from ATCC.
Media for MV-4-11 cell line contained RPMI 1640 or EMEM plus 2 mM Glutamine and 10% Fetal bovine serum.
(§2) BaF3-PIM1 and MV-4-11 cells were seeded at 125 cells/well and 1250 cells/well respectively in a 384-well white plates in complete medium and treated with compounds dissolved in 0.1% DMSO, 24 h after seeding.
(§3) The cells were incubated at 37° C. and 5% CO2 and after 72 hours the plates were processed using CellTiter-Glo assay (Promega) following the manufacturer's instruction.
(§4) CellTiter-Glo was a homogenous method based on the quantification of the ATP present, an indicator of metabolitically active cells. ATP was quantified using a system based on luciferase and D-luciferin resulting into light generation. The luminescent signal was proportional to the number of cells present in culture.
(§5) Briefly 25 μl/well reagent solution were added to each wells and after 5 minutes shacking microplates were red by Envision (PerkinElmer) luminometer. The luminescent signal was proportional to the number of cells present in culture.
(§6) Inhibitory activity was evaluated comparing treated versus control data using Assay Explorer (MDL) program. IC50 was calculated using sigmoidal interpolation curve.
On the technique in general: In ATP-based viability assays light output follows the ATP content of the culture.

In experiment [3] the test system is BaF3-PIM1 cells. Nature of the experiment: In vitro cell proliferation assay (CellTiter-Glo), BaF3-PIM1. The experiment is classed as cell-based. As to conditions: 72 hours. The protocol:
as §1, §2, §3, §4, §5, §6

Experiment [4] addresses human PIM2 (Homo sapiens (Human), UniProt Q9P1W9). Nature of the experiment: PIM2 kinase inhibition assay: Dowex technique. It counts as biochemical. Conditions: ATP 4 μM, Aktide 5 μM, enzyme 1.5 nM; read-out: PIM-2 IC50. The protocol: Method for PIM2 Kinase Inhibition Assay: Dowex Technique
The buffer for PIM2 assay was composed of HEPES 50 mM, at pH 7.5, with 1 mM MgCl2, 1 mM DTT, 3 μM Na3VO4, and 0.2 mg/mL BSA.
Full-length human PIM2 was expressed and purified as described in Fedorov O, et al., PNAS 2007 104, 51, 20523-28. ii. Assay Conditions (Final Concentrations)
Enzyme concentration=1.5 nM; ATP=4 μM; ^33P-γ-ATP=1 nM
Aktide substrate (Chemical Abstract Service Registry Number 324029-01-8)=5 μM iii. Robotized Dowex Assay
See above: same procedure as described for PIM1.

Chain of human PIM1 (P11309 whole entry): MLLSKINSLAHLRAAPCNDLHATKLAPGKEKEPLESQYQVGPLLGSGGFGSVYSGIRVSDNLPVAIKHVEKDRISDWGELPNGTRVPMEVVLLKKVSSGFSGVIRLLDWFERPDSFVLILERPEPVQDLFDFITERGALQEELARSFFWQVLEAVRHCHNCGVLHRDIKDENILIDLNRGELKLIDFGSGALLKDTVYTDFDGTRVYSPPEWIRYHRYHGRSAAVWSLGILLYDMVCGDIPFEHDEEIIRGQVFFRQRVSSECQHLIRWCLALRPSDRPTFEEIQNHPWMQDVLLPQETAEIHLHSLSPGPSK
Chain of human PIM2 (Q9P1W9 whole entry): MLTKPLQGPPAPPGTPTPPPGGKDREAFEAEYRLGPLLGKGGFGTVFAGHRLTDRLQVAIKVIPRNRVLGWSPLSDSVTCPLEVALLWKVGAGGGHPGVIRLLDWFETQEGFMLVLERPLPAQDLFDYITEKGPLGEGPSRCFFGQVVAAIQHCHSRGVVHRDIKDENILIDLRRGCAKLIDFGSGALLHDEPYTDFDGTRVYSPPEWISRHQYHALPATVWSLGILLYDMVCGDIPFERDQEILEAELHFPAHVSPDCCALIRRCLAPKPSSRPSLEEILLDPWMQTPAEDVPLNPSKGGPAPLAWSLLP

For the compound `Cc1cccc(-c2c(-c3cc(Cl)ccc3F)cc3n2C(CCN)CNC3=O)c1` (centres unmarked) [Compound 59, 4-(2-aminoethyl)-7-(5-chloro-2-fluorophenyl)-6-(3-methylphenyl)-3,4-dihydropyrrolo[1,2-a]pyrazin-1(2H)-one hydrochloride], the negative-log IC50 (pIC50) was 7.40 in experiment [1], 5.34 in experiment [2], 6.49 in experiment [3] and 6.94 in experiment [4].

With `CN(C)Cc1ccc(-c2c(-c3cccc(OC(F)(F)F)c3)cc3n2C(CCCl)CNC3=O)cc1` (centres unmarked) [Compound 70, 4-(2-chloroethyl)-6-{4-[(dimethylamino)methyl]phenyl}-7-[3-(trifluoromethoxy)phenyl]-3,4-dihydropyrrolo[1,2-a]pyrazin-1(2H)-one trifluoroacetate], the pIC50 was 7.80 in experiment [1], 5.82 in experiment [2], 6.38 in experiment [3] and 6.95 in experiment [4].

On to `CN1CCN(Cc2ccc(-c3c(-c4cccc(OC(F)(F)F)c4)cc4n3C(CCCl)CNC4=O)cc2)CC1` (centres unmarked) [Compound 71, 4-(2-chloroethyl)-6-{4-[(4-methylpiperazin-1-yl)methyl]phenyl}-7-[3-(trifluoromethoxy)phenyl]-3,4-dihydropyrrolo[1,2-a]pyrazin-1(2H)-one trifluoroacetate], for which the negative-log IC50 (pIC50) in experiment [1] was 7.85; in experiment [2], 5.50; in experiment [3], 6.56; in experiment [4], 7.36.

As for `CN1CCN(Cc2ccc(-c3c(-c4cccc(OC(F)(F)F)c4)cc4n3C(CCO)CNC4=O)cc2)CC1` (centres unmarked) [Compound 82, 4-(2-hydroxyethyl)-6-{4-[(4-methylpiperazin-1-yl)methyl]phenyl}-7-[3-(trifluoromethoxy)phenyl]-3,4-dihydropyrrolo[1,2-a]pyrazin-1(2H)-one trifluoroacetate], the negative-log IC50 (pIC50) is 9.00 in experiment [1], 5.22 in experiment [2], 6.31 in experiment [3] and 7.46 in experiment [4].

In the case of `CN(C)Cc1ccc(-c2c(-c3cccc(OC(F)(F)F)c3)cc3n2C(CCO)CNC3=O)cc1` (centres unmarked) [Compound 83, 6-{4-[(dimethylamino)methyl]phenyl}-4-(2-hydroxyethyl)-7-[3-(trifluoromethoxy)phenyl]-3,4-dihydropyrrolo[1,2-a]pyrazin-1(2H)-one trifluoroacetate], the pIC50 in experiment [1] was 8.40; in experiment [2] it was 5.54; in experiment [3] it was 6.48; in experiment [4], 7.42.

On to `NCC[C@H]1CNC(=O)c2cc(-c3cccc(OC(F)(F)F)c3)c(-c3ccsc3)n21` [Compound 85, (4S)-4-(2-aminoethyl)-6-(thiophen-3-yl)-7-[3-(trifluoromethoxy)phenyl]-3,4-dihydropyrrolo[1,2-a]pyrazin-1(2H)-one hydrochloride], for which the pIC50 in experiment [1] was 7.92; in experiment [2], 5.44; in experiment [3], 7.07; in experiment [4], 7.16.

For `NCC[C@H]1CNC(=O)c2cc(-c3cccc(OC(F)(F)F)c3)c(-c3ccccc3)n21` [Compound 87, (4S)-4-(2-aminoethyl)-6-phenyl-7-[3-(trifluoromethoxy)phenyl]-3,4-dihydropyrrolo[1,2-a]pyrazin-1(2H)-one], the negative-log IC50 (pIC50) in experiment [1] is 8.05; in experiment [2], 5.44; in experiment [3], 6.69; in experiment [4] it was 7.42.

With `Cc1cccc(-c2c(-c3cccc(OC(F)(F)F)c3)cc3n2[C@@H](CCN)CNC3=O)c1` [Compound 92, (4S)-4-(2-aminoethyl)-6-(3-methylphenyl)-7-[3-(trifluoromethoxy)phenyl]-3,4-dihydropyrrolo[1,2-a]pyrazin-1(2H)-one hydrochloride], the negative logarithm of the IC50 (pIC50) in experiment [1] was 8.30; in experiment [2], 5.66; in experiment [3], 6.83; in experiment [4], 7.82.

On to `NCC[C@H]1CNC(=O)c2cc(-c3cccc(OC(F)(F)F)c3)c(-c3ccc(F)cc3)n21` [Compound 94, (4S)-4-(2-aminoethyl)-6-(4-fluorophenyl)-7-[3-(trifluoromethoxy)phenyl]-3,4-dihydropyrrolo[1,2-a]pyrazin-1(2H)-one hydrochloride], for which the pIC50 was 7.70 in experiment [1], 5.27 in experiment [2], 6.37 in experiment [3] and 7.57 in experiment [4].

With `CC(=O)c1ccc(-c2c(-c3cccc(OC(F)(F)F)c3)cc3n2[C@@H](CCN)CNC3=O)cc1` [Compound 95, (4S)-6-(4-acetylphenyl)-4-(2-aminoethyl)-7-[3-(trifluoromethoxy)phenyl]-3,4-dihydropyrrolo[1,2-a]pyrazin-1(2H)-one hydrochloride], the pIC50 is 8.22 in experiment [1], 5.90 in experiment [2], 6.24 in experiment [3] and 7.77 in experiment [4].

As for `NCC[C@H]1CNC(=O)c2cc(-c3cccc(OC(F)(F)F)c3)c(-c3ccc(C=O)cc3)n21` [Compound 97, 4-{(4S)-4-(2-aminoethyl)-1-oxo-7-[3-(trifluoromethoxy)phenyl]-1,2,3,4-tetrahydropyrrolo[1,2-a]pyrazin-6-yl}benzaldehyde hydrochloride], the pIC50 in experiment [1] is 8.15; in experiment [2], 5.68; in experiment [3], 5.82; in experiment [4] it was 7.66.

In the case of `NCC[C@H]1CNC(=O)c2cc(-c3cccc(OC(F)(F)F)c3)c(-c3ccc(CN4CCOCC4)cc3)n21` [Compound 99, (4S)-4-(2-aminoethyl)-6-[4-(morpholin-4-ylmethyl)phenyl]-7-[3-(trifluoromethoxy)phenyl]-3,4-dihydropyrrolo[1,2-a]pyrazin-1(2H)-one hydrochloride], the pIC50 in experiment [1] was 8.70; in experiment [2], 6.17; in experiment [3], 6.39; in experiment [4] it was 8.15.

For `CN1CCN(Cc2ccc(-c3c(-c4cccc(OC(F)(F)F)c4)cc4n3[C@@H](CCN)CNC4=O)cc2)CC1` [Compound 100, (4S)-4-(2-aminoethyl)-6-{4-[(4-methylpiperazin-1-yl)methyl]phenyl}-7-[3-(trifluoromethoxy)phenyl]-3,4-dihydropyrrolo[1,2-a]pyrazin-1(2H)-one hydrochloride], the negative-log IC50 (pIC50) in experiment [1] was 9.00; in experiment [2], 6.21; in experiment [3], 5.51; in experiment [4], 8.70.

In the case of `CN(C)Cc1ccc(-c2c(-c3cccc(OC(F)(F)F)c3)cc3n2[C@@H](CCN)CNC3=O)cc1` [Compound 101, (4S)-4-(2-aminoethyl)-6-{4-[(dimethylamino)methyl]phenyl}-7-[3-(trifluoromethoxy)phenyl]-3,4-dihydropyrrolo[1,2-a]pyrazin-1(2H)-one hydrochloride], the pIC50 is 9.00 in experiment [1], 6.03 in experiment [2], 6.53 in experiment [3] and 8.05 in experiment [4].
